Peptide text beside a SMILES is read from it. * marks the point of attachment. Palmitoyl = CCCCCCCCCCCCCCCC(=O)*
How the values were obtained:
[1] = system: HXB2-mediated cell fusion (HL2/3 effector cells, TZM-b1 target cells); type: cell-based, HIV-1
Protocol: HIV-1 mediated cell fusion inhibition assay: the effector cells (HL2/3 cells) and target cells (TZM-b1 cells) were provided by the AIDS Reagent Program of National Institutes of Health (NIH) (catalog numbers: 1294 and 8129, respectively). The both cells were adherent cells and were cultured in a DMEM cell culture medium containing ampicillin/streptomycin double antibiotics and 10% fetal bovine serum (FBS). The TZM-b1 was first added to a 96-well cell culture plate (1×10^4 cells/well), and cultured overnight at 37° C. and 5% CO2. The test substance was diluted with the DMEM cell culture medium by 3 folds and mixed with HL2/3 effector cells (3×10^4 cells/well), then added to the TZM-b1 target cells, and further cultured for 6 hours to fully fuse. The activity of luciferase (relative fluorescence units, RLU) was then determined using a luciferase reporter gene kit from Promega company according to the instructions. The inhibition rate of each sample at each concentration was calculated, and the half effective inhibitory concentration (IC50 value) was calculated using GraphPad Prism Software 2.01.

[2] = system: HIV-1 strain NL4-3 pseudovirus (D36G mutant); type: cell-based
Protocol: (§1) The supernatant was discarded from the wells. […] Inhibition rate (%) and IC50 value were calculated.

HIV-1 strain JRCSF = type: cell-based
Protocol: (§2) Inhibition rate (%) and IC50 value were calculated.

[3] = system: 35 HIV-1 pseudoviruses (subtypes A, B, B', C, G, A/C, A/E, B/C); conditions: for IC50: read-out: average IC50 for inhibition of various types of HIV-1 pseudoviruses, average over 35 pseudoviruses; for inhibitory activity against different subtypes of HIV-1 as folds of T-20: relative to T-20, from average IC50
Text: HIV-1 pseudovirus-mediated cell entry inhibition assay: basic steps included: (1) Preparation of HIV-1 pseudovirus: the 293T cells were co-transfected with a plasmid expressing the envelope protein (Env) of HIV-1 strain NL4-3 (i.e., a recombinant expression plasmid obtained by inserting the gene encoding the envelope protein (ENV) of the D36G mutant of the HIV-1 strain NL4-3 in the Table 2 of the Reference 14 listed in the Background Art into the vector pcDNA3.1(−)) and the HIV-1 backbone plasmid pSG3Δenv (provided by the AIDS Reagent Program of National Institutes of Health (NIH), catalog number: 11051) by using a cell transfection reagent, incubated in a cell incubator of 37° C. and 5% CO2 for 6 hours, and then the medium was changed, and the cells were further incubated for 48 hours. The cell culture supernatant containing pseudovirus particles was pipetted and filtered with a 0.45 μm filter to collect the supernatant, then 20% fetal bovine serum (FBS) was added thereto, the final solution was transferred to a polypropylene tube, and stored at −80° C. for ready for use or directly subjected to virus titration. (2) Titration of HIV-1 pseudovirus: the viruses were diluted by 5 folds in a 96-well plate, and 4 replicate wells with 8 gradients were set to a final volume of 100 microliters. The TZM-b1 cells were trypsinized and counted, and the cells were diluted to 1×10^5 cells/ml with DMEM complete medium; 100 μl of cells dilution (containing 15 μg/ml DEAE-dextran) per well were added and cultured at 37° C. and 5% CO2 for 48 hours. The 96-well plate was then taken from the cell culture incubator. The supernatant was discarded from the wells. To each well, 30 μl of a cell lysate was added, and after 10 minutes, 100 μl of a luciferase detection reagent was added. 100 μl of liquid was pipetted from each well and added to a corresponding 96-well white plate, and the luminescence values were read by a microplate photometer. The virus titer was calculated by the Reed-Muench method. (3) Antiviral activity assay: the test substance was dissolved in DMSO and diluted with a cell culture solution by 3 folds, and placed in a 96-well plate at a final volume of […]. 50 μl of a DMEM medium was used in place of the test substance as a negative control. To each well, 100 μl of TZM-b1 target cells solution (containing 15 μg/ml DEAE-dextran) at a concentration of 1×10^5 cells/ml was added, and then 50 μl (corresponding to 100 TCID50 per well) of the HIV-1 pseudovirus obtained above was added. After incubation at 37° C. and 5% CO2 for 48 hours, the relative light units (RLU) of each well were determined by using a luciferase detection reagent (Promega). Inhibition rate (%) and IC50 value were calculated.
Among them, the A, B and C subtypes were the main viruses causing AIDS epidemic in the world, while B/C and A/E recombinant viruses were the main viruses in China. […] Among the Env expression plasmids used for the preparation of pseudoviral, except that the Env expression plasmids used for preparation of PVO, Du156 and CAP 210.2.00.E8 were obtained from the AIDS Reagent Program of NIH in the United states, other plasmids were preserved by the laboratory of Prof. He Yuxian, Institute of Pathogen Biology, Chinese Academy of Medical Sciences, please see the References 13, 14 and 18 listed in the Background Art and articles of Chong et al. (Chong H, Yao X, Zhang C, Cai L, Cui S, Wang Y, He Y. Biophysical property and broad anti-HIV activity of Albuvirtide, a 3-maleimimidoproprotionic acid-modified peptide fusion inhibitor. PLoS One, 2012; 7 (3): e 32599). The preparation of the pseudovirus and the antiviral assay were the same as those in Example 2.1 of Example 2 (HIV-1 pseudovirus-mediated cell entry inhibition assay).

[4] = system: NL4-3 pseudovirus carrying T-20 resistance mutation site of NHR; assay: inhibition of T-20 resistant strains; type: cell-based, HIV-1; conditions: strains with single or double mutations
[5] = system: HIV-2 strain ROD (infectious); assay: inhibition of HIV-2; type: cell-based; conditions: HIV-2 ROD
Protocol: as §2
(§3) In order to further reflect the antiviral advantages of the potent lipopeptides of the present invention, their inhibitory activity against HIV-2 and SIV was determined in the example. The methods of antiviral activity assays used were described in the literatures published by the present inventors (see the References 13 and 30 listed in the Background Art). The molecular cloning plasmid pROD of the HIV-2 strain ROD (HIV-2ROD) was kindly provided by Professor Nuno Taveira from the University of Lisbon, Portugal, and the plasmids expressing the SIV strain SIVpbj (SIVPBJ) and SIV239 envelope proteins (pSIVpbj-Env and pSIV239, respectively) were kindly provided by Professor Xu Jianqing from the Fudan University. The preparation of the infectious ROD was the same as that of the infectious JRCSF in the above section 2.1, and the pseudoviruses SIVpbj and SIV239 were prepared by a method same as that described in the above Examples 2 and 3.

[6] = system: SIV pseudoviruses SIVpbj and SIV239; assay: inhibition of SIV pseudoviruses; type: cell-based
Protocol: as §1, §3

[7] = target: N39 (NHR-derived polypeptide of gp41) (Human immunodeficiency virus type 1 group M subtype B, UniProt P04578); type: binding, HIV-1; conditions: 10 μM each, PBS pH 7.2
Sequence of N39 (NHR-derived polypeptide of gp41) (P04578 528-566): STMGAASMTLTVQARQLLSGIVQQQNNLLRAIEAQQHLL
Protocol: (§4) The circular dichroism spectrophotometer was Jasco-815 by JASCO Inc., and the assay method was referred to the papers published by the inventors (see the References 18 and 30 listed in the Background Art). […] The N39 and an inhibitor were separately dissolved in a phosphate buffered saline (PBS) to prepare a PBS solution (pH 7.2) of a concentration of 20 μM. The N39 was mixed with an inhibitor at a volume ratio of 1:1 (final concentration of 10 μM for each), the mixed sample was placed at 37° C. for 30 minutes to fully react, and then the helix content and Tm value of the resultant complex were measured by the circular dichroism spectrophotometer. The scan wavelength range of the device was 195-260 nm with a wavelength interval of 1 nm, and the values measured by scanning for three times were averaged. Based on the CD signals, the interaction between the polypeptides and the helix content were determined. Then, the sample for CD signal measurement was transferred to the temperature scanning sample cell, the program of the CD device was set to temperature scanning with a detection wavelength of 220 nm and scanning range of 20-98° C., and the program scan was performed to obtain the curve of the CD signals vs temperature, based on which the Tm value was calculated. Based on the Tm value, the stability of the formed helical structure of the inhibitor and N39 was judged.

[8] = circular dichroism secondary structure analysis of the inhibitors themselves; type: physicochemical; conditions: 20 μM and 40 μM in PBS
Protocol: as §4
For easy analysis, the α-helix content and the Tm value of the inhibitors were measured at concentrations of 10 μM, 20 μM, and 40 μM (PBS solution), respectively.

| SMILES | inhibitory activity as folds of that of T-20 ([1]; HXB2-mediated cell fusion, relative to T-20) | inhibitory activity as folds of that of T-20 ([2]; NL4-3 pseudovirus entry, relative to T-20) [folds] | inhibitory activity as folds of that of T-20 (HIV-1 strain JRCSF; JRCSF replication, relative to T-20) [folds] | IC50 [3] [nM] | inhibitory activity against different subtypes of HIV-1 as folds of T-20 [3] [folds] | inhibitory activity against T-20 resistant strains (in words) [4] | inhibitory activity against HIV-2 (in words) [5] | inhibitory activity against SIV (in words) [6] | Tm value of the complex with N39 [7] [°C] | helix content of the complex with N39 [7] [%] | secondary structure of the inhibitor itself (in words) [8] | inhibitory activity against HXB2-cell fusion (in words) ([1]; compared with template LP-52) | decrease of inhibitory activity against NL4-3 infection ([2]; compared with template LP-52) | decrease of inhibitory activity against JRCSF infection (HIV-1 strain JRCSF; compared with template LP-52) |
| --- | --- | --- | --- | --- | --- | --- | --- | --- | --- | --- | --- | --- | --- | --- |
| CCCCCCCCCCCCCCCC(=O)NCCCC[C@H](NC(=O)[C@H](CC(=O)O)NC(=O)[C@H](CC(C)C)NC(=O)[C@H](CCC(=O)O)NC(=O)[C@H](CC(C)C)NC(=O)[C@H](CC(C)C)NC(=O)[C@H](CCC(=O)O)NC(=O)[C@H](CCC(N)=O)NC(=O)[C@H](CCC(=O)O)NC(=O)[C@H](CC(N)=O)NC(=O)[C@H](CCCCN)NC(=O)[C@H](CCC(=O)O)NC(=O)[C@H](CCC(N)=O)NC(=O)[C@H](CCC(N)=O)NC(=O)[C@H](CC(N)=O)NC(=O)[C@H](CCC(N)=O)NC(=O)[C@H](CO)NC(=O)[C@H](CCC(=O)O)NC(=O)[C@H](CCC(=O)O)NC(=O)[C@@H](NC(=O)[C@H](CC(C)C)NC(=O)[C@H](CO)NC(=O)[C@H](Cc1c[nH]cn1)NC(=O)[C@@H](NC(=O)[C@H](CC(C)C)NC(=O)[C@H](CO)NC(=O)[C@@H](NC(=O)[C@H](Cc1ccc(O)cc1)NC(C)=O)[C@@H](C)O)[C@@H](C)CC)[C@@H](C)CC)C(N)=O [LP-40] (Ac-YTSLIHSLIEESQNQQEKNEQELLELDK(Palmitoyl)-NH2) | about 59 folds | ~21 | ~18 | 6.37 | 7 | had been improved | only slightly improved | only slightly improved | 51.3 | 57.7 | small amount of helical structure | – | – | – |
| CCCCCCCCCCCCCCCC(=O)NCCCC[C@H](NC(=O)[C@H](CCCCN)NC(=O)[C@H](CC(C)C)NC(=O)[C@H](CCC(=O)O)NC(=O)[C@H](CCC(=O)O)NC(=O)[C@H](CCC(=O)O)NC(=O)[C@H](CC(N)=O)NC(=O)[C@H](CCCCN)NC(=O)[C@H](CCCCN)NC(=O)[C@H](CCC(N)=O)NC(=O)[C@H](CCC(N)=O)NC(=O)[C@H](CCC(=O)O)NC(=O)[C@H](CCC(=O)O)NC(=O)[C@H](C)NC(=O)[C@H](CCCCN)NC(=O)[C@H](CCCCN)NC(=O)[C@H](CC(C)C)NC(=O)[C@H](CC(C)C)NC(=O)[C@H](CCC(=O)O)NC(=O)[C@H](CCC(=O)O)NC(=O)[C@@H](NC(=O)[C@H](CCCCN)NC(=O)[C@H](CCC(N)=O)NC(=O)[C@H](CCC(=O)O)NC(=O)[C@H](Cc1c[nH]c2ccccc12)NC(C)=O)[C@@H](C)CC)C(N)=O [LP-55] (Ac-WEQKIEELLKKAEEQQKKNEEELKK(Palmitoyl)-NH2) | – | – | – | 0.034 | 1218 | much lower active against T-20 resistant mutant strains than the LP-52 and LP-80 | significantly affected the activity | significantly affected the activity | 63.1 | – | – | essentially unchanged | about 2 fold | about 2 fold |
| CCCCCCCCCCCCCCCC(=O)NCCCC[C@H](NC(=O)[C@H](CCC(=O)O)NC(=O)[C@H](CC(C)C)NC(=O)[C@H](CCCCN)NC(=O)[C@H](CCCCN)NC(=O)[C@H](CC(C)C)NC(=O)[C@H](CCC(=O)O)NC(=O)[C@H](CCC(=O)O)NC(=O)[C@H](CCC(=O)O)NC(=O)[C@H](CC(N)=O)NC(=O)[C@H](CCCCN)NC(=O)[C@H](CCCCN)NC(=O)[C@H](CCC(N)=O)NC(=O)[C@H](CCC(N)=O)NC(=O)[C@H](CCC(=O)O)NC(=O)[C@H](CCC(=O)O)NC(=O)[C@H](C)NC(=O)[C@H](CCCCN)NC(=O)[C@H](CCCCN)NC(=O)[C@H](CC(C)C)NC(=O)[C@H](CC(C)C)NC(=O)[C@H](CCC(=O)O)NC(=O)[C@H](CCC(=O)O)NC(=O)[C@@H](NC(C)=O)[C@@H](C)CC)C(N)=O [LP-65] (Ac-IEELLKKAEEQQKKNEEELKKLEK(Palmitoyl)-NH2) | – | – | – | 0.052 | 796 | much lower active against T-20 resistant mutant strains than the LP-52 and LP-80 | extremely potent inhibitory activity | extremely potent inhibitory activity | 72.1 | 63 | – | – | – | – |

— US11680086B2, “Lipopeptide for potently inhibiting HIV, derivative thereof, pharmaceutical composition thereof and use thereof” (Institute of Pathogen Biology, Chinese Academy of Medical …, priority 2017, dated 2023)
